{
  "source": "patent US10124035B2",
  "about": "“DISC-1 pathway activators in the control of neurogenesis” (Massachusetts Institute of Technology, priority 2008, dated 2018)",
  "test_system": "neural progenitors in embryonic mouse brains",
  "assay": "In utero electroporation of shRNA into E13 embryonic mouse brains",
  "format": "in vivo",
  "excerpt": "• Mice. Swiss Webster pregnant female mice were purchased from Taconic (Hudson, N.Y.). • Cell Culture. AHPs were kindly provided by Dr. Gage (Lie, D. C. et al. Wnt signaling to regulates adult hippocampal neurogenesis. Nature 437, 1370-5 (2005)) and cultured under conditions described previously (Palmer, T. D., Takahashi, J. & Gage, F. H. The adult rat hippocampus contains primordial neural stem cells. Mol Cell Neurosci 8, 389-404 (1997)). Primary neural progenitors were isolated from E14 mouse embryos and cultured as described previously (Sanada, K. & Tsai, L. H. G protein betagamma subunits and AGS3 control spindle orientation and asymmetric cell fate of cerebral cortical progenitors. Cell 122, 119-31 (2005)). N2a and 293T cells were cultured in DMEM medium containing 10% FBS, L-glutamine, and penicillin/streptomycin. Wnt3a expressing L cells and untransfected L cells were obtained from ATCC (Manassas, Va.). Wnt3a conditional medium was produced according to the ATCC protocol. To induce AHP differentiation, FGF2 was removed from the culture medium and 1 μM retinoic acid/1% FBS was added to the medium for 4 days. • Reagents. Recombinant Wnt3a protein was obtained from Chemicon (Rosemont, Ill.). FGF2 was obtained from PeproTech (Rocky Hill, N.J.). Recombinant GST-GSK3β was obtained from Active Motif (Carlsbad, Calif.). Recombinant GST-β-catenin and GST-axin were obtained from Millipore (Billerica, Mass.). The GSK313 inhibitor, SB-216763, AR-A104418 and His-GSK3β, were obtained from Sigma-Aldrich (Sigma-Aldrich, St. Louis, Mo.). L803-MTS was obtained from Calbiochem (San Diego, Calif.). GST-AKT1 was obtained from Cell Signaling (Beverly, Mass.). GST-CASK-1 (CASK fragment from 316-415aa), GST-CASK-2 (CASK fragment from 777-974aa), and GST-p25 proteins were kindly provided by Dr. B. A. Samuels. Mouse DISC1 peptidel (40-78aa: GYMRSTAGSG IGFLSPAVGMPHPSSAG LTGQQSQHSQS; SEQ ID NO: 1) and Mouse DISC1 peptide 2 (195-238aa, […] GERGEAEGCLPSREAE; SEQ ID NO: 2) were synthesized by Chi Scientific (Maynard, Mass.). • Antibodies. The primary antibodies used in this study were the following: rabbit anti-DISC1 C-terminal antibody, mouse and rabbit anti-GFP antibodies (Invitrogen, Carlsbad, Calif.); affinity purified rabbit anti-DISC1 antibody (Novus, Littleton, Colo.) for immunohistochemistry; mouse anti-FLAG and mouse anti-Actin antibody; mouse anti-GSK3β antibody, mouse anti-β-catenin antibody, mouse anti-pY216 GSK3β antibody, and mouse anti-nestin antibody (BD Biosciences, San Diego, Calif.); rabbit anti-[…] β-catenin antibody, rabbit anti-pS9 GSK3β antibody, and mouse anti-cyclin to D1 antibody (Cell Signaling); mouse anti-Dv12 antibody, mouse anti-HA antibody, mouse anti-GST antibody, mouse anti-ubiquitin antibody, and rabbit anti-β-catenin antibody (Santa Cruz, Santa Cruz, Calif.); mouse Tuj-1 antibody (BABCO, Harrisburg, Pa.); mouse anti-BrdU antibody (DakoCytomation, Glostrup, Denmark); guinea pig anti-doublecortin antibody (Chemicon, Rosemont, Ill.); chicken anti-GFP antibody (Ayes Labs, Tigard, Oreg.); rabbit anti-pS10 Histone H3 antibody (Upstate, Lake Placid, N.Y.). • Constructs. The sequences for shRNAs targeting DISC1 are as follows: control shRNA: 5′-CGGCTGAAACAAGAGTTGG-3′ (SEQ ID NO:3); DISC1 shRNA-1: 5′-GGCAAACACTGTGA AGT GC-3′ (SEQ ID NO:4); DISC1 shRNA-2: 5′-[…]-3′ (SEQ ID NO:5)(Kamiya A. et al. A schizophrenia-associated mutation of DISC1 perturbs cerebral cortex development. Nat. Cell Biol 7, 1167-78 (2005)). DISC1 shRNA-1 recognizes both rat and mouse DISC1. […]",
  "key": {"[1]": {"settings": "electroporated at E13, analyzed 3 days later"}},
  "data": [
    {"substance": "DISC1 shRNA-1: shRNA targeting rat and mouse DISC1, SEQ ID NO:4, in pLentiLox 3.7 vector (GGCAAACACTGTGAAGTGC)", "values": [
      {"measurement": "BrdU labeling", "setting": "BrdU 2 hours prior to collection", "value": "18.2±2.2", "unit": "%"},
      {"measurement": "cell cycle exit index", "setting": "electroporated E13, BrdU at E15, collected E16", "value": "53.2±6.1", "unit": "%"},
      {"measurement": "GFP+Dcx+ cells", "setting": "electroporated E13, sacrificed E16, SVZ", "value": "36.7±4.2", "unit": "%"},
      {"measurement": "GFP positive cells in the VZ/SVZ", "setting": "[1]", "value": 13, "unit": "%"},
      {"measurement": "GFP positive cells in the cortical plate", "setting": "[1]", "value": 59.6, "unit": "%"},
      {"measurement": "mitotic index", "setting": "pH3, electroporated E13, sacrificed E15", "value": "3.8±0.8", "unit": "%"}
    ]}
  ]
}
